Results on 22 compounds are retold here after ChEMBL document CHEMBL3414535, “Identification and optimization of Escherichia coli GlmU inhibitors: an in silico approach with validation thereof” (Eur J Med Chem, 2015).

SMILES strings stand for the structures. pIC50: −log10 of the molar value.

Bifunctional protein GlmU, sequence (P0ACC7 whole entry): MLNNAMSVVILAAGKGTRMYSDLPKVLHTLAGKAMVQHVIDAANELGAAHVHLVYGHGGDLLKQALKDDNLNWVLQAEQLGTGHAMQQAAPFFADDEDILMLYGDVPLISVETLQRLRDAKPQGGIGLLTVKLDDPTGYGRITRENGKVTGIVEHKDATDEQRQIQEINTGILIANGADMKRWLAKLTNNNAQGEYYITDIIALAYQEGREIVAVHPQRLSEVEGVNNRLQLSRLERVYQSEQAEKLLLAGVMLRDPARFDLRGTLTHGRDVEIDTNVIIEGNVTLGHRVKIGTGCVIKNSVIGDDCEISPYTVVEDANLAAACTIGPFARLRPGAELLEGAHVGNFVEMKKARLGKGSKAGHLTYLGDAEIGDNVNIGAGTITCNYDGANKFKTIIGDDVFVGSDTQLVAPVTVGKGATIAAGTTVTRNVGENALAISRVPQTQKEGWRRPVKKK

This test concerns the target Bifunctional protein GlmU (Escherichia coli (strain K12), UniProt P0ACC7). The test can be described thus: Inhibition of Escherichia coli GlmU acetyltransferase activity assessed as coenzyme A production using acetyl CoA substrate.
In the case of `COc1cc(OC)c(S(=O)(=O)N2c3ccccc3CC[C@H]2C)cc1NC(=O)CSc1ccncc1`, the pIC50 was 6.00. For the compound `COc1cc(OC)c(S(=O)(=O)N(C)C)cc1NC(C)=O`, the pIC50 was 3.70. For the compound `COc1cc(OC)c(S(=O)(=O)N2c3ccccc3CC[C@H]2C)cc1NC(C)=O`, the pIC50 is 5.82. For `COc1cc(OC)c(S(=O)(=O)N2c3ccccc3CC[C@H]2C)cc1NS(C)(=O)=O`, the pIC50 is 4.00. On to `COc1cc(OC)c(S(=O)(=O)N2c3ccccc3Oc3ccccc32)cc1NC(=O)Cc1ccnc(F)c1`, for which the pIC50 was 7.05. For the compound `COc1cc(OC)c(S(=O)(=O)N2CCCCC2)cc1NC(C)=O`, the pIC50 was 4.10. To `COc1cc(OC)c(S(=O)(=O)Nc2ccc(C)cc2)cc1NC(C)=O` belongs 4.68.

Turning to `COc1cc(OC)c(S(=O)(=O)N2CCC[C@H]2C)cc1NC(C)=O`, the pIC50 is 3.70. Consider `COc1cc(OC)c(S(=O)(=O)Nc2cccc(C)c2)cc1NC(C)=O`, for which the pIC50 was 4.77. Turning to `COc1cc(OC)c(S(=O)(=O)N(C)c2ccccc2)cc1NC(C)=O`, the pIC50 was 5.52. With `COc1cc(OC)c(S(=O)(=O)N2c3ccccc3CC[C@@H]2C)cc1NC(=O)COCC(=O)O`, the pIC50 is 6.70.

As for `COc1cc(O)c(S(=O)(=O)N2c3ccccc3CC[C@H]2C)cc1NC(=O)CCC(=O)O`, the pIC50 was 7.30. As to `COc1cc(OC)c(S(=O)(=O)N2c3ccccc3Oc3ccccc32)cc1NC(=O)CCC(=O)O`, the pIC50 was 8.00. Turning to `COc1cc(OC)c(S(=O)(=O)N(c2ccccc2)C(C)C)cc1NC(C)=O`, the pIC50 is 5.70.

Consider `COc1cc(OC)c(S(=O)(=O)NCc2ccccc2N2CCC(CO)CC2)cc1NC(C)=O`, for which the pIC50 is 4.40. The value for `COc1ccccc1CNS(=O)(=O)c1cc(NC(C)=O)c(OC)cc1OC` was 5.00. The value for `COc1cc(OC)c(S(=O)(=O)N2c3ccccc3Oc3ccccc32)cc1NC(=O)[C@H]1[C@@H](C)[C@H]1C(=O)O` was 7.52.

In the case of `COc1cc(OC)c(S(=O)(=O)NCc2ccccc2-c2ccc(C(=O)O)cc2)cc1NC(=O)CCC(=O)O`, the pIC50 is 6.05. On to `COc1cc(OC)c(S(=O)(=O)N2CCCC[C@@H]2C)cc1NC(C)=O`, for which the pIC50 is 3.89. The value for `COc1cc(OC)c(S(=O)(=O)N(c2ccccc2)c2ccc3ccccc3c2)cc1NC(=O)CCC(=O)O` was 7.40. The value for `COc1cc(OC)c(S(=O)(=O)NCc2ccccc2Br)cc1NC(C)=O` was 5.40; that for `COc1cc(OC)c(S(=O)(=O)N2c3ccccc3CC[C@@H]2C)cc1NC(=O)/C=C/C(=O)O` was 6.30.

As usually defined, the pIC50 is the IC50 on a negative log10 scale, so that one unit is a factor of ten.
